38 compounds from patent US5214046A, “Substituted aminoalkoxybenzene anti-fungicidal compositions and use” (Hoffmann-La Roche Inc., priority 1989, dated 1993) can be followed below.

SMILES strings stand for the structures. Structures can show the parent of a compound that is named as a salt.

Chain of 2,3-epoxysqualene-lanosterol cyclase (Q04782 whole entry): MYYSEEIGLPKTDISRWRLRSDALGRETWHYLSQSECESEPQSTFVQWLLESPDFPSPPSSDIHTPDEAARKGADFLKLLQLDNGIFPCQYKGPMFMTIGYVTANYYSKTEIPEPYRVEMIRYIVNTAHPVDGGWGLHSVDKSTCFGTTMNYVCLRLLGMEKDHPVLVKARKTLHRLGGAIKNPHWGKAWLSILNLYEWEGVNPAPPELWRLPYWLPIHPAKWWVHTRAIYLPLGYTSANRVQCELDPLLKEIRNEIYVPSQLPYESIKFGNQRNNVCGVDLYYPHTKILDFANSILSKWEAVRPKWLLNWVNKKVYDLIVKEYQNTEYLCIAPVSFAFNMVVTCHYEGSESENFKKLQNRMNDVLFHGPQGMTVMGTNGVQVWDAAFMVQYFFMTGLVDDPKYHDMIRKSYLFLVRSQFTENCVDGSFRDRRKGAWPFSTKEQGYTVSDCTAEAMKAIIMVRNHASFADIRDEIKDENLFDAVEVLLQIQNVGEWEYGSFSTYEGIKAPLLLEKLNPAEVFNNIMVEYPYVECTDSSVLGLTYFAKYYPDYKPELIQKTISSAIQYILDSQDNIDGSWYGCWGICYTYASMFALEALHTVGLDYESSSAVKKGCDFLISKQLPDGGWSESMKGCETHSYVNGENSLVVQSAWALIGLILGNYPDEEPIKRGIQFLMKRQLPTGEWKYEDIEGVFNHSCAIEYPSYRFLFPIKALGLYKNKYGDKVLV

The first experiment addresses 2,3-epoxysqualene-lanosterol cyclase (Candida albicans, UniProt Q04782). Description: Inhibition of 2,3-epoxysqualene-lanosterol cyclase from Candida albicans (cell-free extract, 14C-squalene epoxide). In kind it is biochemical.
Conditions: not given
As to `C=CCN(C)CCCCCCOc1ccc(C(=O)c2ccccc2)cc1C` [Compound 34, 4-[[6-(allylmethylamino)hexyl]oxy]-3-methylbenzophenone], the IC50 (as a rule, the concentration that gives 50% inhibition) is 87.5 nM.

`C=CCN(C)C/C=C/COc1ccc(C(=O)c2ccc(Cl)cc2Cl)cc1` [Compound 42, trans-4-[[4-(allylmethylamino)-2-butenyl]oxy]-2',4'-dichlorobenzophenone] gave an IC50 of 17.9 nM.

Turning to `C=CCN(C)CCCCCCOc1ccc(C(=O)c2cccc(C)c2C)cc1` [Compound 35, 4-[[6-(allylmethylamino)hexyl]oxy]-2',3'-dimethylbenzophenone], the IC50 was 224 nM.

With `O=C(c1ccccc1)c1ccc(OCCCCCCN2CCC2)cc1` [Compound 17, 4-[(6-(azetidinyl)hexyl)oxy]benzophenone], the half-maximal inhibitory concentration (IC50) was 1780 nM.

Take `C=CCN(C)CCCCCCOc1ccc(C(=O)Cc2ccccc2)cc1` [Compound 32, 4-[[6-(allylmethylamino)hexyl]oxy]-2-phenylacetophenone]: the IC50 is 95.8 nM.

`C=CCN(C)C/C=C/COc1ccc(C(=O)c2ccccc2)cc1` [Compound 41, trans-4-[[4-(allylmethylamino)-2-butenyl]oxy]benzophenone]: the 50% inhibitory concentration (IC50) is 62.2 nM.

`C=CCN(C)CCCCCCOc1ccc(C(=O)c2cc(Cl)cc(Cl)c2)cc1` [Compound 37, 4-[[6-(allylmethylamino)hexyl]oxy]-3',5'-dichlorobenzophenone] showed an IC50 of 809 nM.

In turn, `C=CCN(C)CCCCCCOc1ccc(C(=O)c2ccc([N+](=O)[O-])cc2)cc1` [Compound 38, 4-[[6-(allylmethylamino)hexyl]oxy]-4'-nitrobenzophenone] showed an IC50 of 101 nM.

`C=CCN(C)CCCCCCOc1ccc(C(=O)c2ccc(Cl)cc2Cl)cc1` [Compound 36, 4-[[6-(allylmethylamino)hexyl]oxy]-2',4'-dichlorobenzophenone] showed an IC50 of 131 nM.

Staying with this experiment, now noted: C. albicans cell-free extract, pH 6.9, 30°, 1 hour; read-out: IC50 (converted).
Take `CN(C)CCCCCCOc1ccc(C(=O)CCc2ccccc2)cc1` [Compound 8, 4'-[[6-(dimethylamino)hexyl]oxy]-3-phenylpropiophenone]: the concentration for half-maximal inhibition (IC50) is 990 nM.

`CN(C)C/C=C/COc1ccc(C(=O)c2ccccc2)cc1` [Compound 43, trans-4-[[4-(dimethylamino)-2-butenyl]oxy]benzophenone]: the IC50 was 745 nM.

For the compound `CN(C)CCCCCCCCCOc1ccc(C(=O)c2ccccc2)cc1` [Compound 20, 4-[[9-(dimethylamino)nonyl]oxy]benzophenone], the IC50 was 4350 nM.

On to `CN(C)CCCCCCOc1ccc(C(=O)c2ccccc2)cc1` [Compound 3, 4-[(6-dimethylamino)hexyl)oxy]benzophenone hydrochloride], for which the IC50 is 461 nM.

`CCN(CC)CCCCCCOc1ccc(C(=O)C#Cc2ccccc2)cc1` [Compound 14, 4'-[[6-(diethylamino)hexyl]oxy]-3-phenylpropiolophenone]: the concentration for half-maximal inhibition (IC50) was 8210 nM.

On to `Cc1cc(C(=O)c2ccccc2)ccc1OCCCCCCN(C)C` [Compound 25, 4-[[6-(dimethylamino)hexyl]oxy]-3-methylbenzophenone], for which the IC50 is 560 nM.

With `CN(C)CCCCCCCCOc1ccc(C(=O)c2ccccc2)cc1` [Compound 19], the IC50 was 1190 nM.

In the case of `CCN(CC)CCCCCCOc1cccc(C(=O)CCc2ccccc2)c1` [Compound 4, 3'-[[6-(diethylamino)hexyl]oxy]-3-phenypropiophenone], the IC50 is 1570 nM.

On to `CN(C)CCCCCCOc1ccc(C(=O)c2ccc(F)cc2)cc1` [Compound 12, 4-[[6-(dimethylamino)hexyl]oxy]-4'-fluorobenzophenone], for which the IC50 was 524 nM.

In the case of `CN(C)CCCCCCOc1ccc(C(=O)c2c(F)c(F)c(F)c(F)c2F)cc1` [Compound 15, 4'-[[6-(dimethylamino)hexyl]oxy]-2,3,4,5,6-pentafluorobenzophenone], the 50% inhibitory concentration (IC50) was 2140 nM.

As to `CNCCCCCCOc1ccc(C(=O)c2ccccc2)cc1` [Compound 24, 4-[[6-(methylamino)hexyl]oxy]benzophenone], the half-inhibitory concentration (IC50) is 963 nM.

As for `CCCN(CCC)CCCCCCOc1ccc(C(=O)c2ccccc2)cc1` [Compound 16, 4-[[6-(dipropylamino)hexyl]oxy]benzophenone], the IC50 was 2410 nM.

Regarding `CN(C)CCCCCCOc1cccc(C(=O)CCc2ccccc2)c1` [Compound 11], the IC50 was 2830 nM.

Consider `O=C(c1ccccc1)c1ccc(OCCCCCCN2CCCC2)cc1` [Compound 22, 4-[(6-(pyrrolidino)hexyl)oxy]benzophenone], for which the 50% inhibitory concentration (IC50) is 967 nM.

For the compound `CCN(CC)CCCCCCOc1ccc(C(=O)CCc2ccccc2)cc1` [Compound 7, 4'-[[6-(diethylamino)hexyl]oxy]-3-phenylpropiophenone], the concentration for half-maximal inhibition (IC50) is 708 nM.

For the compound `CN(C)CCCCCCOc1ccc(C(=O)c2ccc([N+](=O)[O-])cc2)cc1` [Compound 29, 4-[[6-(dimethylamino)hexyl]oxy]-4'-nitrobenzophenone], the IC50 is 756 nM.

As to `CN(C)C/C=C/COc1ccc(C(=O)c2ccc(Cl)cc2Cl)cc1` [Compound 44, trans-4-[[4-(dimethylamino)-2-butenyl]oxy]-2',4'-dichlorobenzophenone], the concentration for half-maximal inhibition (IC50) is 178 nM.

As for `CN(C)CCCCCCOc1ccc(C(=O)c2ccc(Cl)cc2Cl)cc1` [Compound 27, 4-[[6-(dimethylamino)hexyl]oxy]-2',4'-dichlorobenzophenone], the IC50 was 659 nM.

Take `CN(C)CCCCCOc1ccc(C(=O)c2ccccc2)cc1` [Compound 2, 4-[(5-(dimethylamino)pentyl)oxy]benzophenone]: the half-inhibitory concentration (IC50) is 514 nM.

Turning to `Cc1cccc(C(=O)c2ccc(OCCCCCCN(C)C)cc2)c1C` [Compound 26, 4-[[6-(dimethylamino)hexyl]oxy]-2',3'-dimethylbenzophenone], the IC50 was 1190 nM.

As to `CN(C)CCCCCCOc1ccc(C(=O)Cc2ccccc2)cc1` [Compound 6], the half-maximal inhibitory concentration (IC50) is 191 nM.

On to `CCN(CC)CCCCCCOc1ccc(C(=O)c2ccccc2)cc1` [Compound 9, 4'-[[6-(diethylamino)hexyl]oxy]benzophenone], for which the IC50 is 1020 nM.

Take `CN(C)CCCCCCCCCCOc1ccc(C(=O)c2ccccc2)cc1` [Compound 21, 4-[[10-(dimethylamino)decyl]oxy]benzophenone]: the IC50 is 5240 nM.

For `CN(C)CCCCCCOc1ccc(C(=O)c2cc(Cl)cc(Cl)c2)cc1` [Compound 28, 4-[[6-(dimethylamino)hexyl]oxy]-3',5'-dichlorobenzophenone], the IC50 was 3800 nM.

As to `CN(C)CCCCCCOc1ccc(C(=O)c2ccc(Cl)cc2Cl)cc1Cl` [Compound 30, 4-[[6-(dimethylamino)hexyl]oxy]-2',3,4'-trichlorobenzophenone], the half-inhibitory concentration (IC50) is 233 nM.

For the compound `CN(C)CCCCCCOc1ccc(CC(=O)c2ccccc2)cc1` [Compound 23, 2-[4-[[6-(dimethylamino)hexyl]oxy]phenyl]acetophenone], the 50% inhibitory concentration (IC50) was 560 nM.

As for `CN(C)CCCCCCOc1cccc(C(=O)c2ccccc2)c1` [Compound 13, 3-[(6-(dimethylamino)hexyl)oxy]benzophenone], the IC50 was 6150 nM.

Take `CN(C)CCCCCCOc1cccc(C(=O)/C=C/c2ccccc2)c1` [Compound 10, (E)-3'-[[6-(dimethylamino)hexyl]oxy]-3-phenylacrylophenone]: the half-inhibitory concentration (IC50) is 6540 nM.

As for `CN(C)CCCCCCOc1ccc(C(=O)/C=C/c2ccccc2)cc1` [Compound 5, (E)-4'-[[6-(dimethylamino)hexyl]oxy]-3-phenylacrylophenone], the IC50 was 1710 nM.
